Where two headings read alike, the source gives them in different places.
What was measured:
Type in all cases: cell-based
[1] = system: Methicillin-Susceptible Staphylococcus aureus Isolates; assay: MIC assay (NCCLS broth dilution), MSSA clinical isolates; conditions: for MIC: read-out: Minimal Inhibitory Concentration
Procedure, shortened: (§1)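 Broth microdilution MIC run per NCCLS M7-A6 guidelines in Mueller Hinton II broth, over 11 two-fold serial dilutions of test agent. Novobiocin/tetracycline and novobiocin/minocycline combinations were tested at a 2.5:1 ratio to mimic serum levels; vancomycin served as control agent.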

[2] = system: Methicillin-Resistant Staphylococcus aureus Isolates; assay: MIC assay (NCCLS broth dilution), MRSA clinical isolates; conditions: Staphylococcus aureus; for MIC: read-out: Minimal Inhibitory Concentration
Procedure, shortened: as §1

[3] = system: Unconfirmed Vancomycin-intermediate Staphylococcus aureus Isolates; assay: MIC assay (NCCLS broth dilution), unconfirmed VISA isolates; conditions: Staphylococcus aureus; for MIC: read-out: Minimal Inhibitory Concentration
Procedure, shortened: as §1

[4] = system: Vancomycin-intermediate Staphylococcus epidermidis Isolates; assay: MIC assay (NCCLS broth dilution), VISE isolates; conditions: for MIC: read-out: Minimal Inhibitory Concentration
Procedure, shortened: as §1

[5] = Staphylococcus aureus, 52 MSSA isolates, combinations at 2.5:1, given as NB/partner
[6] = 52 MRSA isolates, combinations at 2.5:1, given as NB/partner

Cc1onc(-c2ccccc2)c1C(=O)N[C@@H]1C(=O)N2[C@@H]1SC(C)(C)[C@@H]2C(=O)O [OX, oxacillin]
0.12 µg/mL: MIC ([1]; Staphylococcus aureus, MSSA isolate 133, 03MAR06) | MIC ([1]; Staphylococcus aureus, MSSA isolate 779, 22FEB06) | MIC ([1]; Staphylococcus aureus, MSSA isolate 785, 22FEB06) | MIC ([1]; Staphylococcus aureus, MSSA isolate 792, 03MAR06) | MIC ([1]; Staphylococcus aureus, MSSA isolate 995, 03MAR06) | MIC ([1]; Staphylococcus aureus, MSSA isolate 998, 03MAR06) | MIC ([1]; Staphylococcus aureus, MSSA isolate 1132, 03MAR06) | MIC ([1]; Staphylococcus aureus, MSSA isolate 1654, 03MAR06) | MIC ([1]; Staphylococcus aureus, MSSA isolate 1728, retest 09MAR06)
8 µg/mL: MIC ([2]; MRSA isolate 768, 22FEB06) | MIC ([2]; MRSA isolate 773, 24FEB06) | MIC ([2]; MRSA isolate 1004, 24FEB06) | MIC ([2]; MRSA isolate 1016, 22FEB06) | MIC ([2]; MRSA isolate 1022, 22FEB06) | MIC ([2]; MRSA isolate 1138, 22FEB06) | MIC ([4]; Staphylococcus epidermidis, VISE isolate 2020, 09MAR06)
16 µg/mL: MIC ([2]; MRSA isolate 767, 22FEB06) | MIC ([2]; MRSA isolate 769, 22FEB06) | MIC ([2]; MRSA isolate 770, 22FEB06) | MIC ([2]; MRSA isolate 1017, 22FEB06) | MIC ([2]; MRSA isolate 1024, 22FEB06) | MIC ([2]; MRSA isolate 1025, 22FEB06) | MIC ([2]; MRSA isolate 1658, 03MAR06) | MIC ([2]; MRSA isolate 1659, 03MAR06) | MIC ([2]; MRSA isolate 2010, 24FEB06) | MIC ([4]; Staphylococcus epidermidis, VISE isolate 2022, 03MAR06)
0.5 µg/mL: MIC ([1]; Staphylococcus aureus, MSSA isolate 1002, 24FEB06) | MIC ([1]; Staphylococcus aureus, MSSA isolate 1009, 24FEB06) | MIC ([1]; Staphylococcus aureus, MSSA isolate 1131, 24FEB06) | MIC ([1]; Staphylococcus aureus, MSSA isolate 1133, 24FEB06) | MIC ([4]; Staphylococcus epidermidis, VISE isolate 2021, 09MAR06)
0.25 µg/mL: MIC ([1]; Staphylococcus aureus, MSSA isolate 134, 03MAR06) | MIC ([1]; Staphylococcus aureus, MSSA isolate 135, 03MAR06) | MIC ([1]; Staphylococcus aureus, MSSA isolate 753, 22FEB06) | MIC ([1]; Staphylococcus aureus, MSSA isolate 754, 22FEB06) | MIC ([1]; Staphylococcus aureus, MSSA isolate 754, 24FEB06) | MIC ([1]; Staphylococcus aureus, MSSA isolate 755, 22FEB06) | MIC ([1]; Staphylococcus aureus, MSSA isolate 756, 03MAR06) | MIC ([1]; Staphylococcus aureus, MSSA isolate 780, 03MAR06) | MIC ([1]; Staphylococcus aureus, MSSA isolate 781, 03MAR06) | MIC ([1]; Staphylococcus aureus, MSSA isolate 782, 22FEB06) | MIC ([1]; Staphylococcus aureus, MSSA isolate 783, 22FEB06) | MIC ([1]; Staphylococcus aureus, MSSA isolate 784, 22FEB06) | MIC ([1]; Staphylococcus aureus, MSSA isolate 786, 22FEB06) | MIC ([1]; Staphylococcus aureus, MSSA isolate 787, 22FEB06) | MIC ([1]; Staphylococcus aureus, MSSA isolate 788, 22FEB06) | MIC ([1]; Staphylococcus aureus, MSSA isolate 789, 24FEB06) | MIC ([1]; Staphylococcus aureus, MSSA isolate 790, 24FEB06) | MIC ([1]; Staphylococcus aureus, MSSA isolate 791, 24FEB06) | MIC ([1]; Staphylococcus aureus, MSSA isolate 793, 24FEB06) | MIC ([1]; Staphylococcus aureus, MSSA isolate 794, 24FEB06) | MIC ([1]; Staphylococcus aureus, MSSA isolate 994, 22FEB06) | MIC ([1]; Staphylococcus aureus, MSSA isolate 996, 22FEB06) | MIC ([1]; Staphylococcus aureus, MSSA isolate 997, 22FEB06) | MIC ([1]; Staphylococcus aureus, MSSA isolate 999, 22FEB06) | MIC ([1]; Staphylococcus aureus, MSSA isolate 1000, 24FEB06) | MIC ([1]; Staphylococcus aureus, MSSA isolate 1001, 24FEB06) | MIC ([1]; Staphylococcus aureus, MSSA isolate 1003, 03MAR06) | MIC ([1]; Staphylococcus aureus, MSSA isolate 1005, 24FEB06) | MIC ([1]; Staphylococcus aureus, MSSA isolate 1006, 24FEB06) | MIC ([1]; Staphylococcus aureus, MSSA isolate 1007, 24FEB06) | MIC ([1]; Staphylococcus aureus, MSSA isolate 1008, 24FEB06) | MIC ([1]; Staphylococcus aureus, MSSA isolate 1134, 24FEB06) | MIC ([1]; Staphylococcus aureus, MSSA isolate 1656, 03MAR06) | MIC ([1]; Staphylococcus aureus, MSSA isolate 1662, 03MAR06) | MIC ([1]; Staphylococcus aureus, MSSA isolate 1663, 03MAR06) | MIC ([1]; Staphylococcus aureus, MSSA isolate 1666, 03MAR06) | MIC ([1]; Staphylococcus aureus, MSSA isolate 1667, 03MAR06) | MIC ([1]; Staphylococcus aureus, MSSA isolate 1668, 03MAR06) | MIC ([1]; Staphylococcus aureus, MSSA isolate 1671, 03MAR06) | MIC ([1]; Staphylococcus aureus, MSSA isolate 1728, 03MAR06) | MIC50 [1, 5] | MIC90 [1, 5] | MIC ([3]; Unconfirmed VISA isolate 2017, 03MAR06)
32 µg/mL: MIC ([2]; MRSA isolate 757, 24FEB06) | MIC ([2]; MRSA isolate 763, 22FEB06) | MIC ([2]; MRSA isolate 772, 22FEB06) | MIC ([2]; MRSA isolate 774, 24FEB06) | MIC ([2]; MRSA isolate 777, 24FEB06) | MIC ([2]; MRSA isolate 886, 24FEB06) | MIC ([2]; MRSA isolate 1010, 22FEB06) | MIC ([2]; MRSA isolate 1013, 22FEB06) | MIC ([2]; MRSA isolate 1014, 22FEB06) | MIC ([2]; MRSA isolate 1015, 22FEB06) | MIC ([2]; MRSA isolate 1021, 22FEB06) | MIC ([2]; MRSA isolate 1135, 22FEB06) | MIC ([2]; MRSA isolate 1136, 22FEB06) | MIC ([2]; MRSA isolate 1222, 03MAR06) | MIC ([2]; MRSA isolate 1222, 24FEB06) | MIC ([2]; MRSA isolate 1730, 24FEB06) | MIC ([2]; MRSA isolate 2011, 24FEB06) | MIC50 [2, 6]
2 µg/mL: MIC ([4]; Staphylococcus epidermidis, VISE isolate 2023, 03MAR06) | MIC50 ([4]; Staphylococcus epidermidis, 4 VISE isolates, combinations at 2.5:1)
0.5 to 16 µg/mL: MIC Range ([4]; 4 VISE isolates, combinations at 2.5:1)
> 32 µg/mL: MIC ([2]; MRSA isolate 758, 03MAR06) | MIC ([2]; MRSA isolate 758, 24FEB06) | MIC ([2]; MRSA isolate 760, 03MAR06) | MIC ([2]; MRSA isolate 760, 24FEB06) | MIC ([2]; MRSA isolate 765, 22FEB06) | MIC ([2]; MRSA isolate 766, 22FEB06) | MIC ([2]; MRSA isolate 771, 22FEB06) | MIC ([2]; MRSA isolate 775, 24FEB06) | MIC ([2]; MRSA isolate 776, 24FEB06) | MIC ([2]; MRSA isolate 778, 24FEB06) | MIC ([2]; MRSA isolate 887, 24FEB06) | MIC ([2]; MRSA isolate 888, 24FEB06) | MIC ([2]; MRSA isolate 889, 24FEB06) | MIC ([2]; MRSA isolate 1012, 22FEB06) | MIC ([2]; MRSA isolate 1137, 22FEB06) | MIC ([2]; MRSA isolate 1653, 03MAR06) | MIC ([2]; MRSA isolate 1661, 03MAR06) | MIC ([2]; MRSA isolate 1729, 03MAR06) | MIC ([2]; MRSA isolate 2009, 24FEB06) | MIC90 [2, 6] | MIC ([3]; Unconfirmed VISA isolate 2014, 03MAR06) | MIC ([3]; Unconfirmed VISA isolate 2015, 03MAR06) | MIC ([3]; Unconfirmed VISA isolate 2019, 03MAR06)
.12 to .5 µg/mL: MIC Range ([1]; 52 MSSA isolates, Mueller Hinton II Broth, combinations at 2.5:1, given as NB/partner)
4 µg/mL: MIC ([2]; MRSA isolate 1023, 22FEB06) | MIC ([3]; Unconfirmed VISA isolate 2013, 03MAR06) | MIC ([3]; Unconfirmed VISA isolate 2016, 03MAR06) | MIC50 ([3]; 6 unconfirmed VISA isolates (vancomycin MIC 4 ug/ml), combinations at 2.5:1)
